The text below walks through data of patent US20180132458A1, “TRANSGENIC ANIMAL MODELS FOR CYSTIC FIBROSIS” (THE REGENTS OF THE UNIVERSITY OF MICHIGAN, priority 2016, published 2018).

The assay has as its system forskolin/IBMX-stimulated CFTR Cl current in ileum tissue. Nature of the assay: Short-circuit current of freshly excised ileum tissue measured by Ussing chamber. To be noted: CFTR+/+ rabbits. The assay is classed as cell-based, rabbit. As to the method: (Panel A) Immunocytochemistry of lungs and small intestines from CFTR+/+ and CFTR−/− rabbits. Red: CFTR; blue: nuclei. (Panel B) Short circuit current measurements of small intestines from CFTR+/+ and CFTR−/− rabbits after treated 1 μM indomethcin.
CFTR expression in the airways and in the small intestines of wild-type and CFTR−/− rabbits was evaluated by immunoflorescence. […] Next, CFTR Cl secretion in these animals were examined. Ileum tissues from CFTR+/+ and CFTR−/− rabbits were used for CFTR functional assay. Short-circuit currents from these tissues with muscle layer on serosal side removed were measured by Ussing chamber. […] This situation was also observed in ferrets and pigs.

On to `O=C(CNc1ccc2ccccc2c1)N/N=C/c1cc(Br)c(O)c(Br)c1O` [GlyH101], for which the forskolin-stimulated current blocked result (GlyH101 at 10 μM) is recorded as “Only a small fraction”.

`CCCCNc1cc(C(=O)O)cc(S(N)(=O)=O)c1Oc1ccccc1` [bumetanide]: the forskolin-stimulated current blocked entry is “more than 50%”.
